A word on the MIC: it is the least concentration at which growth counts as inhibited. Usually MBC stands for the smallest concentration meeting the test's criterion for killing. A lower MBC goes with more potent killing.

In experiment [1] the test system is Vancomycin Resistant Enterococcus (VRE) strain V583. As to the kind of experiment: Effect of combination of Example 11 and Vancomycin on VRE (V583), CFU counts. Format: cell-based. The settings on record: for avg. CFU: VRE V583 OD 0.001, 18 h. The method, then:
The mixture (200 μL) was incubated at 37° C. for 18 h Controls were performed without bacteria-vehicle (DMSO), Vancomycin vehicle (water) and BHI controls that use those as treatment to the inoculum, to ensure no previous bacterial contamination in the reagents. Bacterial CFU were counted as standard methods using serial dilution plated on BHI plates to determine the effect of each treatment.

In experiment [2] the test system is E. faecalis OG1RF. As to the kind of experiment: Combination with Vancomycin in vivo, mouse model of CAUTI, OG1RF (vancomycin sensitive). Details: species or system Enterococcus faecalis. The settings on record: C57BL/6Ncr mice. The procedure: (§1) Mice used in this study were six-week-old female wild-type C57BL/6Ncr mice. Mice were anesthetized by inhalation of isoflurane and implanted with a 5-mm length of platinum-cured silicone catheter. Then, mice were infected immediately following catheter implantation with 50 μl of ˜2×10^7 CFU of E. faecalis OG1RF (FIG. 10A and FIG. 10B) or V583 (FIG. 11A and FIG. 11B) in PBS (1 mL) was introduced in the bladder lumen by transurethral inoculation. […] Mice were sacrificed at 48 hours post-infection by cervical dislocation after anaesthesia inhalation, and the bladders were aseptically harvested. Subsequently, the silicone implant was retrieved from the bladder. Catheters were placed in 1×PBS (1 mL), sonicated for 10 min, to detach E. faecalis and bladders were homogenized in 1×PBS (1 mL). For bacterial enumeration on catheters and bladder, samples were serially diluted and plated on BHI for CFU enumeration.

Experiment [3] concerns vancomycin resistant E. faecalis V583. As to the kind of experiment: Combination with Vancomycin in vivo, mouse model of CAUTI, V583 (vancomycin resistant). The note with it: C57BL/6Ncr mice. Details: species or system Enterococcus faecalis. The method, then: as §1
In experiment [4] the test system is MRSA. As to the kind of experiment: Minimum Inhibitory Concentration (MIC) and Minimum Bactericidal Concentration (MBC) assays. It counts as cell-based, Methicillin-resistant Staphylococcus aureus. The settings on record: Staphylococcus aureus, compound alone, no antibiotic; for MIC: 18 h, overnight (18 hrs), read-out: MIC. The method, then:
(§2) MIC was defined by the lowest concentration of the test compound that inhibits visible growth of pathogen of interest. The optical density of the pathogen of interest culture was measured by OD600.
(§3) MBC was determined colony forming units (CFUs) enumeration by serially diluting and plating bacterial cultures on BHI plates.
(§4) Thus, no antibiotic was used in Table 2.

Another experiment has as its system E. faecalis. Nature of the experiment: MIC and MBC assays. Format: cell-based. The note with it: Enterococcus faecalis, compound alone, no antibiotic; for MIC: overnight (18 hrs). The method, then: as §2, §3, §4
The test system of another experiment is Streptococcus. Nature of the experiment: MIC and MBC assays. Format: cell-based. The settings on record: compound alone, no antibiotic. The procedure:
as §2, §3, §4

Experiment [5] concerns MRSA. As to the kind of experiment: Effect of compound alone on MRSA, CFU counts. Format: cell-based, Methicillin-resistant Staphylococcus aureus. The settings on record: compound 25 μM alone, 37° C. 18 h. The procedure:
(§5) The mixture (200 μL) was incubated at 37° C. for 18 h. A control without the test compound was performed in the same way.

For experiment [6], the system named is MRSA. Nature of the experiment: Effect of combination with Oxacillin on MRSA, CFU counts. Format: cell-based, Methicillin-resistant Staphylococcus aureus. The settings on record: compound 25 μM in combination with Oxacillin 9 μM, 37° C. 18 h. The method, then: as §5
The test system of experiment [7] is E. faecalis OG1RF. As to the kind of experiment: Effect of combination of Gentamicin and Example 11 on E. faecalis OG1RF in vitro (FIG. 7). Format: cell-based, Enterococcus faecalis. The settings on record: agent alone.
Experiment [8] relates to E. faecalis OG1RF. As to the kind of experiment: Combination with Gentamicin in vivo, mouse model of CAUTI, OG1RF. The arrangement: species or system Enterococcus faecalis. The note with it: C57BL/6Ncr mice. The method, then: as §1, with “catheter.” for “catheter. Then, mice were infected immediately following catheter implantation with 50 μl of ˜2×10^7 CFU of E. faecalis OG1RF (FIG. 10A and FIG. 10B) or V583 (FIG. 11A and FIG. 11B) in PBS (1 mL) was introduced in the bladder lumen by transurethral inoculation.”

Experiment [9] relates to E. faecalis OG1RF. As to the kind of experiment: Stand alone activity in vivo, mouse model of catheter-associated urinary tract infection (CAUTI). Details: species or system Enterococcus faecalis. The settings on record: C57BL/6Ncr mice; 10 mg/kg intraperitoneally 24 hours post-infection; sacrificed 48 hours post-infection; compound alone. The procedure:
as §1, with “OG1RF” for “OG1RF (FIG. 10A and FIG. 10B) or V583 (FIG. 11A and FIG. 11B)”, “mL).” for “mL). For bacterial enumeration on catheters and bladder, samples were serially diluted and plated on BHI for CFU enumeration.”
Mice used in this study were six-week-old female wild-type C57BL/6Ncr mice. Mice were anesthetized by inhalation of isoflurane and implanted with a 5-mm length of platinum-cured silicone catheter.
Mice were sacrificed at 48 hours post-infection by cervical dislocation after anaesthesia inhalation, and the bladders were aseptically harvested. Subsequently, the silicone implant was retrieved from the bladder. Catheters were placed in 1×PBS (1 mL), sonicated for 10 min, to detach E. faecalis and bladders were homogenized in 1×PBS (1 mL). For bacterial enumeration on catheters and bladder, samples were serially diluted and plated on BHI for CFU enumeration.

Setting [10] is: 3 mg/kg intraperitoneally 24 hours post-infection, agent alone.
Setting [11] is: 2 mg/kg intraperitoneally 24 hours post-infection, agent alone.
The mark [12] stands for this setting: combination of Vancomycin and Example 49, 3 mg/kg intraperitoneally.
Setting [13] is: combination of Gentamicin and Example 49, 2 mg/kg intraperitoneally.

≈ marks a conversion by molar mass, not a printed value.

With `CN[C@H](CC(C)C)C(=O)N[C@H]1C(=O)N[C@@H](CC(N)=O)C(=O)N[C@H]2C(=O)N[C@H]3C(=O)N[C@H](C(=O)N[C@H](C(=O)O)c4cc(O)cc(O)c4-c4cc3ccc4O)[C@H](O)c3ccc(c(Cl)c3)Oc3cc2cc(c3O[C@@H]2O[C@H](CO)[C@@H](O)[C@H](O)[C@H]2O[C@H]2C[C@](C)(N)[C@H](O)[C@H](C)O2)Oc2ccc(cc2Cl)[C@H]1O` [Vancomycin, vancomycin], the “avg. CFU” value in experiment [1] (Experiment 1, Vancomycin 1 μg/ml alone (Control)) was 1.20E+09 CFU; in experiment [1] (Experiment 1, Vancomycin 2 μg/ml alone (Control)) it was 1.35E+09 CFU; in experiment [1] (Experiment 1, Vancomycin 4 μg/ml alone (Control)), 5.00E+08 CFU; in [1] (Experiment 1, Vancomycin 8 μg/ml alone (Control)), 4.00E+08 CFU; in [1] (Experiment 1, Vancomycin 16 μg/ml alone (Control)), 3.00E+08 CFU; in experiment [1] (Experiment 1, Vancomycin 32 μg/ml alone (Control)), 5.50E+08 CFU. The “avg. CFU” value is given as 4.00E+07 CFU in experiment [1] (Experiment 1, Vancomycin 64 μg/ml alone (Control)); 1.70E+09 CFU in experiment [1] (Experiment 2, Vancomycin 1 μg/ml alone (Control)); 1.40E+09 CFU in experiment [1] (Experiment 2, Vancomycin 2 μg/ml alone (Control)); 8.50E+08 CFU in experiment [1] (Experiment 2, Vancomycin 4 μg/ml alone (Control)); 8.50E+08 CFU in experiment [1] (Experiment 2, Vancomycin 8 μg/ml alone (Control)); 4.50E+08 CFU in [1] (Experiment 2, Vancomycin 16 μg/ml alone (Control)). Moreover, the “avg. CFU” value in [1] (Experiment 2, Vancomycin 32 μg/ml alone (Control)) stood at 1.95E+06 CFU; in experiment [1] (Experiment 2, Vancomycin 64 μg/ml alone (Control)), 6.00E+04 CFU. For the same compound, in [1] (Vancomycin alone at a concentration below 64 μg/ml, VRE V583), the “effect on the bacterial growth” value is on record as “no or no substantial effect”. The “reduction of bacterial titers in the bladders” value (shortened to “reduction … in the bladders”) in the experiment on E. faecalis OG1RF [2] (setting [10]) is “did not result in reduction”. In addition, the “reduction of bacterial titers on the catheters” value in the experiment on E. faecalis OG1RF [2] (setting [10]) is reported as “did not result in reduction”. For the same compound, in [3] (setting [10]), the “reduction of bacterial titers in the bladder” value is reported as 0.3 log units. In addition, the “reduction of bacterial titers on the catheter” value in experiment [3] (setting [10]) was “no effect”.
Turning to `CCCCCOc1ccc(-c2sc3c(OC)c(Cc4cccc5ccccc45)cc(=O)n3c2C(=O)O)cc1C` [Example 8, 5-Methoxy-4-[(1-naphthyl)methyl]-2-oxo-8-[4-(pentyloxy)-3-methyl-phenyl]-7-thia-1-azabicyclo[4.3.0]nona-3,5,8-triene-9-carboxylic acid], the MIC is 12 µM (≈ 6.5 µg/mL) in the experiment with MRSA [4] and 25 µM (≈ 13.5 µg/mL) with E. faecalis. Further, the MBC in the experiment on MRSA [4] was 13 µM (≈ 7.04 µg/mL); in the experiment with E. faecalis it was 12.5 µM (≈ 6.77 µg/mL); in the experiment on Streptococcus, 7 µM (≈ 3.79 µg/mL). The CFUs/ml with MRSA [5] (MRSA OD 0.001) is given as 4.0E+05 CFUs/ml; in the experiment with MRSA [5] (MRSA OD 0.1), 6.0E+06 CFUs/ml; in the experiment on MRSA [5] (MRSA OD 1) it was 6.0E+07 CFUs/ml; in the experiment with MRSA [6] (MRSA OD 0.1), 1.7E+04 CFUs/ml; in the experiment on MRSA [6] (MRSA OD 1), 1E+06 CFUs/ml.
Regarding gentamicin [reference compound], in the experiment on E. faecalis OG1RF [7], the “number of observed bacterial CFUs/ml” value is on record as “did not result in a decrease”. Further, in the experiment with E. faecalis OG1RF [8] (setting [11]), the “reduction … in the bladders” value was “did not result in reduction” and the “reduction of bacterial titers on catheters” value is reported as “did not result in reduction”.
For the compound `CCCCOc1ccc(-c2sc3c(OC)c(Cc4cccc5ccccc45)cc(=O)n3c2C(=O)O)cc1C` [Example 9, 8-(4-Butoxy-3-methyl-phenyl)-5-methoxy-4-[(1-naphthyl)methyl]-2-oxo-7-thia-1-azabicyclo[4.3.0]nona-3,5,8-triene-9-carboxylic acid], the MIC came out at 17 µM (≈ 8.97 µg/mL) in the experiment on MRSA [4] and 39 µM (≈ 20.6 µg/mL) with E. faecalis. The MBC with MRSA [4] was determined as 37 µM (≈ 19.5 µg/mL); with E. faecalis it was 12.5 µM (≈ 6.6 µg/mL); with Streptococcus, 8 µM (≈ 4.22 µg/mL). Moreover, the CFUs/ml with MRSA [5] (MRSA OD 0.001) was determined as 8.0E+04 CFUs/ml; in the experiment on MRSA [5] (MRSA OD 0.1), 4.4E+06 CFUs/ml; in the experiment on MRSA [5] (MRSA OD 1), 5.0E+07 CFUs/ml; with MRSA [6] (MRSA OD 0.1), 2.6E+04 CFUs/ml; in the experiment with MRSA [6] (MRSA OD 1), 3E+06 CFUs/ml.
Turning to `CCCCCOc1ccc(-c2sc3c(OC)c(Cc4c5ccccc5cc5ccccc45)cc(=O)n3c2C(=O)O)cc1C` [Example 49, 7-(anthracen-9-ylmethyl)-8-methoxy-2-(3-methyl-4-(pentyloxy)phenyl)-5-oxo-thiazolo[3,2-a]pyridine-3-carboxylic acid], the “reduction of bacterial titers in the bladder” value in the experiment on E. faecalis OG1RF [9] is “about 1.5 log units”; in the experiment with E. faecalis OG1RF [2] (setting [12]), “about 2 log units”; in [3] (setting [10]), “about 0.5 log units”; in experiment [3] (setting [12]), “about 2 log units”; in the experiment on E. faecalis OG1RF [8] (setting [13]), “about 2 log units”. Moreover, the “reduction of bacterial titers on the catheters” value is reported as “about 1.5 log units” in the experiment on E. faecalis OG1RF [9], “about 1 log unit” in the experiment on E. faecalis OG1RF [2] (setting [10]) and “about 2 log units” in the experiment on E. faecalis OG1RF [2] (setting [12]). Besides, the results for the “reduction … in the bladders” value in the experiment on E. faecalis OG1RF [2] (setting [10]) and in the experiment with E. faecalis OG1RF [8] (setting [11]) were “about 1 log unit” and “about 0.2 log units”, respectively. For the same compound, the “reduction of bacterial titers on the catheter” value in [3] (setting [10]) is listed as “no effect”; in experiment [3] (setting [12]), “about 1 log unit”. Further, the “reduction of bacterial titers on catheters” value is around 0.5 log units in the experiment with E. faecalis OG1RF [8] (setting [11]) and “about 1.5 log units” in the experiment with E. faecalis OG1RF [8] (setting [13]).
